Test results from US20250163104A1, “MACROCYCLIC IMMUNOMODULATORS” (priority 2021, published 2025).
Where a SMILES comes first, the peptide text is derived from it. Bridges are numbered along the chain shown (N, C = ends). [ ]: non-standard residue; d: D form. The star is where a group is joined. ξ: configuration not given here. Bip(3'-COOH) = N[C@@H](Cc1ccc(-c2cccc(C(=O)O)c2)cc1)C(=O)O; Bip = N[C@@H](Cc1ccc(-c2ccccc2)cc1)C(=O)O; Phe(4-CN) = N#Cc1ccc(C[C@H](N)C(=O)O)cc1; Phe(2-F) = N[C@@H](Cc1ccccc1F)C(=O)O; 4Pal = N[C@@H](Cc1ccncc1)C(=O)O; 2Thi = N[C@@H](Cc1cccs1)C(=O)O; Cha = N[C@@H](CC1CCCCC1)C(=O)O; Ile(3ξ) = CCC(C)[C@H](N)C(=O)O; Carboxymethyl = O=C(O)C*; Orn = NCCC[C@H](N)C(=O)O; Dab = NCC[C@H](N)C(=O)O; Dap = NC[C@H](N)C(=O)O

Molecular target: T1, human PD-1 / PD-L1-Ig binding on Jurkat cell line over-expressing human PD-1 (Jurkat-PD-1) (Homo sapiens, UniProt Q15116)
T1 construct: expressed in transfected cells; host or cells: Jurkat
Test: Jurkat-PD-1 Cell Binding High-Content Screening Assay (CBA)
Format: cell-based
Conditions: Jurkat-PD-1 cells, PE-labeled PD-L1-Ig 20 nM final; read-out: Jurkat HPD1_PDL1 IC50
Method in brief: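 Jurkat cells over-expressing human PD-1, in DMEM/10% FCS, pre-incubated with compound 2 h at 37° C. PE-labeled human PD-L1-Ig (20 nM final) added for 1 h; cells fixed in paraformaldehyde with Hoechst 33342 nuclear stain, washed, and bound fluorescence quantified by high-content imaging.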

T1 sequence (Q15116 25-288): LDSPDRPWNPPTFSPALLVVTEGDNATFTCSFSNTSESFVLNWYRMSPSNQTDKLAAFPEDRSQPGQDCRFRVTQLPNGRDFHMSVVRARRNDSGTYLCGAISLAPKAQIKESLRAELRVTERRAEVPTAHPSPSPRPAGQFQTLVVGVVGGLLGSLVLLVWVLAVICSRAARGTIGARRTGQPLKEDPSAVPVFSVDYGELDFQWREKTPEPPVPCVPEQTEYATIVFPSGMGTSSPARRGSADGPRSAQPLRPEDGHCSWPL

**Q.** CC(C)C[C@H]1NC(=O)[C@H](CCCN)NC(=O)[C@H](CCC(=O)O)NC(=O)[C@H](Cc2ccc(-c3ccccc3)cc2)NC(=O)[C@H](C(C)C)NC(=O)[C@H](Cc2cccs2)NC(=O)[C@H](CC(=O)O)NC(=O)[C@H](Cc2ccncc2)NC(=O)[C@H](Cc2ccncc2)NC(=O)CSC[C@@H](C(=O)N[C@@H](C)C(N)=O)NC(=O)[C@H]([C@@H](C)O)NC(=O)[C@H](C(C)C)NC(=O)[C@H](CC2CCCCC2)NC(=O)[C@H](CCN)NC1=O [Compound 2203] ({CH2CO}-[4Pal][4Pal]D[2Thi]V[Bip]E[Orn][dL][Dab][Cha]VTCA-NH2; thioether N-14) was tested. Which IC50 did it give?
**A.** 0.0182 µM

**Q.** For CC(C)C[C@H]1NC(=O)[C@H](CCCN)NC(=O)[C@H](CCC(=O)O)NC(=O)[C@H](Cc2ccc(-c3ccccc3)cc2)NC(=O)[C@H](C(C)C)NC(=O)[C@H](Cc2cccs2)NC(=O)[C@H](CC(=O)O)NC(=O)[C@H](Cc2cccs2)NC(=O)[C@H](Cc2ccccc2)NC(=O)CSC[C@@H](C(=O)N[C@@H](C)C(N)=O)NC(=O)[C@H]([C@@H](C)O)NC(=O)[C@H](C(C)C)NC(=O)[C@H](CC2CCCCC2)NC(=O)[C@H](CCN)NC1=O [Compound 2204] ({CH2CO}-F[2Thi]D[2Thi]V[Bip]E[Orn][dL][Dab][Cha]VTCA-NH2; thioether N-14), which IC50 is on record?
**A.** 0.0244 µM

**Q.** CC(C)C[C@H]1NC(=O)[C@H](CCCN)NC(=O)[C@H](CCC(=O)O)NC(=O)[C@H](Cc2ccc(-c3ccccc3)cc2)NC(=O)[C@H](C(C)C)NC(=O)[C@H](Cc2cccs2)NC(=O)[C@H](CC(=O)O)NC(=O)[C@H](Cc2cccs2)NC(=O)[C@H](CN)NC(=O)CSC[C@@H](C(=O)N[C@@H](C)C(N)=O)NC(=O)[C@H]([C@@H](C)O)NC(=O)[C@H](C(C)C)NC(=O)[C@H](CC2CCCCC2)NC(=O)[C@H](CCN)NC1=O [Compound 2205] ({CH2CO}-[Dap][2Thi]D[2Thi]V[Bip]E[Orn][dL][Dab][Cha]VTCA-NH2; thioether N-14) was tested. Which IC50 did it give?
**A.** 0.0186 µM

**Q.** CC(C)C[C@H]1NC(=O)[C@H](CCCN)NC(=O)[C@H](CCC(=O)O)NC(=O)[C@H](Cc2ccc(-c3ccccc3)cc2)NC(=O)[C@H](C(C)C)NC(=O)[C@H](Cc2cccs2)NC(=O)[C@H](CC(=O)O)NC(=O)[C@H](Cc2cccs2)NC(=O)[C@H](Cc2ccc(OCC(=O)O)cc2)NC(=O)CSC[C@@H](C(=O)N[C@@H](C)C(N)=O)NC(=O)[C@H]([C@@H](C)O)NC(=O)[C@H](C(C)C)NC(=O)[C@H](CC2CCCCC2)NC(=O)[C@H](CCN)NC1=O [Compound 2206] ({CH2CO}-Y(Carboxymethyl)[2Thi]D[2Thi]V[Bip]E[Orn][dL][Dab][Cha]VTCA-NH2; thioether N-14) was tested. Which IC50 did it give?
**A.** 0.0146 µM

**Q.** How did the IC50 turn out when CC(C)C[C@H]1NC(=O)[C@H](CCCN)NC(=O)[C@H](CCC(=O)O)NC(=O)[C@H](Cc2ccc(-c3ccccc3)cc2)NC(=O)[C@H](C(C)C)NC(=O)[C@H](Cc2ccccc2F)NC(=O)[C@H](CC(=O)O)NC(=O)[C@H](Cc2ccncc2)NC(=O)[C@H](CC(N)=O)NC(=O)CSC[C@@H](C(=O)N[C@@H](C)C(N)=O)NC(=O)[C@H]([C@@H](C)O)NC(=O)[C@H](C(C)C)NC(=O)[C@H](CC2CCCCC2)NC(=O)[C@H](CCN)NC1=O [Compound 2207] ({CH2CO}-N[4Pal]D[Phe(2-F)]V[Bip]E[Orn][dL][Dab][Cha]VTCA-NH2; thioether N-14) was run?
**A.** 0.0344 µM

**Q.** How did the IC50 turn out when CC(C)C[C@H]1NC(=O)[C@H](CCCN)NC(=O)[C@H](CCC(=O)O)NC(=O)[C@H](Cc2ccc(-c3ccccc3)cc2)NC(=O)[C@H](C(C)C)NC(=O)[C@H](Cc2ccccc2F)NC(=O)[C@H](CC(=O)O)NC(=O)[C@H](Cc2ccncc2)NC(=O)[C@H](Cc2ccccc2)NC(=O)CSC[C@@H](C(=O)N[C@@H](C)C(N)=O)NC(=O)[C@H]([C@@H](C)O)NC(=O)[C@H](C(C)C)NC(=O)[C@H](CC2CCCCC2)NC(=O)[C@H](CCN)NC1=O [Compound 2208] ({CH2CO}-F[4Pal]D[Phe(2-F)]V[Bip]E[Orn][dL][Dab][Cha]VTCA-NH2; thioether N-14) was run?
**A.** 0.0306 µM

**Q.** With CC(C)C[C@H]1NC(=O)[C@H](CCCN)NC(=O)[C@H](CCC(=O)O)NC(=O)[C@H](Cc2ccc(-c3ccccc3)cc2)NC(=O)[C@H](C(C)C)NC(=O)[C@H](Cc2ccccc2F)NC(=O)[C@H](CC(=O)O)NC(=O)[C@H](Cc2ccncc2)NC(=O)[C@H](CN)NC(=O)CSC[C@@H](C(=O)N[C@@H](C)C(N)=O)NC(=O)[C@H]([C@@H](C)O)NC(=O)[C@H](C(C)C)NC(=O)[C@H](CC2CCCCC2)NC(=O)[C@H](CCN)NC1=O [Compound 2209] ({CH2CO}-[Dap][4Pal]D[Phe(2-F)]V[Bip]E[Orn][dL][Dab][Cha]VTCA-NH2; thioether N-14) as the compound, how does the IC50 read?
**A.** 0.0297 µM

**Q.** For CC(C)C[C@H]1NC(=O)[C@H](CCCN)NC(=O)[C@H](CCC(=O)O)NC(=O)[C@H](Cc2ccc(-c3ccccc3)cc2)NC(=O)[C@H](C(C)C)NC(=O)[C@H](Cc2ccccc2F)NC(=O)[C@H](CC(=O)O)NC(=O)[C@H](Cc2ccncc2)NC(=O)[C@H](Cc2ccc(OCC(=O)O)cc2)NC(=O)CSC[C@@H](C(=O)N[C@@H](C)C(N)=O)NC(=O)[C@H]([C@@H](C)O)NC(=O)[C@H](C(C)C)NC(=O)[C@H](CC2CCCCC2)NC(=O)[C@H](CCN)NC1=O [Compound 2210] ({CH2CO}-Y(Carboxymethyl)[4Pal]D[Phe(2-F)]V[Bip]E[Orn][dL][Dab][Cha]VTCA-NH2; thioether N-14), which IC50 is on record?
**A.** 0.0251 µM

**Q.** How did the IC50 turn out when CC(C)C[C@H]1NC(=O)[C@H](CCCN)NC(=O)[C@H](CCC(=O)O)NC(=O)[C@H](Cc2ccc(-c3ccccc3)cc2)NC(=O)[C@H](C(C)C)NC(=O)[C@H](Cc2ccccc2F)NC(=O)[C@H](CC(=O)O)NC(=O)[C@H](Cc2ccncc2)NC(=O)[C@H](Cc2ccncc2)NC(=O)CSC[C@@H](C(=O)N[C@@H](C)C(N)=O)NC(=O)[C@H]([C@@H](C)O)NC(=O)[C@H](C(C)C)NC(=O)[C@H](CC2CCCCC2)NC(=O)[C@H](CCN)NC1=O [Compound 2211] ({CH2CO}-[4Pal][4Pal]D[Phe(2-F)]V[Bip]E[Orn][dL][Dab][Cha]VTCA-NH2; thioether N-14) was run?
**A.** 0.0203 µM

**Q.** How did the IC50 turn out when CC(C)C[C@H]1NC(=O)[C@H](CCCN)NC(=O)[C@H](CCC(=O)O)NC(=O)[C@H](Cc2ccc(-c3ccccc3)cc2)NC(=O)[C@H](C(C)C)NC(=O)[C@H](Cc2ccccc2F)NC(=O)[C@H](CC(=O)O)NC(=O)[C@H](Cc2ccc(C#N)cc2)NC(=O)[C@H](CC(N)=O)NC(=O)CSC[C@@H](C(=O)N[C@@H](C)C(N)=O)NC(=O)[C@H]([C@@H](C)O)NC(=O)[C@H](C(C)C)NC(=O)[C@H](CC2CCCCC2)NC(=O)[C@H](CCN)NC1=O [Compound 2212] ({CH2CO}-N[Phe(4-CN)]D[Phe(2-F)]V[Bip]E[Orn][dL][Dab][Cha]VTCA-NH2; thioether N-14) was run?
**A.** 0.0376 µM

**Q.** For CC(C)C[C@H]1NC(=O)[C@H](CCCN)NC(=O)[C@H](CCC(=O)O)NC(=O)[C@H](Cc2ccc(-c3ccccc3)cc2)NC(=O)[C@H](C(C)C)NC(=O)[C@H](Cc2ccccc2F)NC(=O)[C@H](CC(=O)O)NC(=O)[C@H](Cc2ccc(C#N)cc2)NC(=O)[C@H](Cc2ccccc2)NC(=O)CSC[C@@H](C(=O)N[C@@H](C)C(N)=O)NC(=O)[C@H]([C@@H](C)O)NC(=O)[C@H](C(C)C)NC(=O)[C@H](CC2CCCCC2)NC(=O)[C@H](CCN)NC1=O [Compound 2213] ({CH2CO}-F[Phe(4-CN)]D[Phe(2-F)]V[Bip]E[Orn][dL][Dab][Cha]VTCA-NH2; thioether N-14), which IC50 is on record?
**A.** 0.0592 µM

**Q.** How did the IC50 turn out when CC(C)C[C@H]1NC(=O)[C@H](CCCN)NC(=O)[C@H](CCC(=O)O)NC(=O)[C@H](Cc2ccc(-c3ccccc3)cc2)NC(=O)[C@H](C(C)C)NC(=O)[C@H](Cc2ccccc2F)NC(=O)[C@H](CC(=O)O)NC(=O)[C@H](Cc2ccc(C#N)cc2)NC(=O)[C@H](CN)NC(=O)CSC[C@@H](C(=O)N[C@@H](C)C(N)=O)NC(=O)[C@H]([C@@H](C)O)NC(=O)[C@H](C(C)C)NC(=O)[C@H](CC2CCCCC2)NC(=O)[C@H](CCN)NC1=O [Compound 2214] was run?
**A.** 0.0154 µM

**Q.** CC(C)C[C@H]1NC(=O)[C@H](CCCN)NC(=O)[C@H](CCC(=O)O)NC(=O)[C@H](Cc2ccc(-c3ccccc3)cc2)NC(=O)[C@H](C(C)C)NC(=O)[C@H](Cc2ccccc2F)NC(=O)[C@H](CC(=O)O)NC(=O)[C@H](Cc2ccc(C#N)cc2)NC(=O)[C@H](Cc2ccc(OCC(=O)O)cc2)NC(=O)CSC[C@@H](C(=O)N[C@@H](C)C(N)=O)NC(=O)[C@H]([C@@H](C)O)NC(=O)[C@H](C(C)C)NC(=O)[C@H](CC2CCCCC2)NC(=O)[C@H](CCN)NC1=O [Compound 2215] was tested. Which IC50 did it give?
**A.** 0.0304 µM

**Q.** Which IC50 does the source give for CC(C)C[C@H]1NC(=O)[C@H](CCCN)NC(=O)[C@H](CCC(=O)O)NC(=O)[C@H](Cc2ccc(-c3ccccc3)cc2)NC(=O)[C@H](C(C)C)NC(=O)[C@H](Cc2ccccc2F)NC(=O)[C@H](CC(=O)O)NC(=O)[C@H](Cc2ccc(C#N)cc2)NC(=O)[C@H](Cc2ccncc2)NC(=O)CSC[C@@H](C(=O)N[C@@H](C)C(N)=O)NC(=O)[C@H]([C@@H](C)O)NC(=O)[C@H](C(C)C)NC(=O)[C@H](CC2CCCCC2)NC(=O)[C@H](CCN)NC1=O [Compound 2216] here?
**A.** 0.0193 µM

**Q.** Which IC50 does the source give for CCC(C)[C@@H]1NC(=O)[C@H](Cc2ccc(-c3ccccc3)cc2)NC(=O)[C@H](C(C)C)NC(=O)[C@H](Cc2c[nH]c3ccccc23)NC(=O)[C@H](CC(=O)O)NC(=O)[C@H](Cc2ccc(-c3cccc(C(=O)O)c3)cc2)NC(=O)[C@H](CC(N)=O)NC(=O)CSC[C@@H](C(=O)N[C@@H](C)C(N)=O)NC(=O)[C@H]([C@@H](C)O)NC(=O)[C@H](C(C)C)NC(=O)[C@H](CC2CCCCC2)NC(=O)[C@H](CCN)NC(=O)[C@@H](CC(C)C)NC(=O)[C@H](CCCN)NC1=O (stereo partly drawn) [Compound 2217] ({CH2CO}-N[Bip(3'-COOH)]DWV[Bip][Ile(3ξ)][Orn][dL][Dab][Cha]VTCA-NH2; thioether N-14) here?
**A.** 0.0168 µM
